# According to US20240261268A1, “METHODS OF SLOWING AN INCREASE IN BRAIN VENTRICULAR VOLUME” (VANDA PHARMACEUTICALS INC., priority 2022, published 2024):
# What was measured:
# [1] = other S1P receptor modulators, given for comparison; cited from earlier work
# [2] = system: adult subjects with relapsing MS; assay: Phase III study: premature treatment discontinuation and deaths; format: in vivo
# Procedure: A total of 1468 subjects were screened. Of those, 1133 subjects were randomized (567 to ponesimod 20 mg and 566 to teriflunomide 14 mg) across 162 sites in 28 countries, and 1131 subjects received at least one dose of study drug. The disposition of subjects is summarized in Table 1 and a summary of reasons (primary reason) for treatment discontinuation are shown in Table 2. Overall treatment and study discontinuation were balanced across both treatment arms. A total of 6.5% and 2.5% of the subjects discontinued due to AEs or tolerability related reasons in ponesimod 20 mg and teriflunomide 14 mg, respectively, while 1.9% and 4.3% discontinued due to efficacy related reasons. There were 2 deaths reported during the study—both on teriflunomide 14 mg.
# [3] = system: adult subjects with relapsing MS; assay: 12-lead ECG heart rate and first-dose monitoring on Day 1; format: in vivo, human
# Procedure: The incidence of treatment-emergent heart rate and rhythm (including hypotension) AESIs on Day 1 was higher in the ponesimod 20 mg arm (2.1%) than in the teriflunomide 14 mg arm (0.4%). However, the overall incidence of first dose AESI on Day 1 was low (2.1%) in ponesimod. None of these events were serious nor led to permanent discontinuation of study treatment. Discharge criteria at 4 hours post-dose were met for ca. 99% of subjects. […] ECG HR effect: nadir at 2 hours post-dose (siponimod—3-4 hours, fingolimod—around by 6 hours). Low incidence of low HR outliers (post-dose HR≤40 bpm), all 3 of them with a pre-treatment HR of <55 bpm, which is a known risk factor for post-dose bradycardia with SIP receptor modulators.
# The mean heart rate reduction compared to pre-dose reached a maximum for ponesimod 20 mg at 2-hours post dose, −8.7 bpm compared to −1.7 bpm for teriflunomide 14 mg (FIG. 2).
# [4] = system: adult subjects with relapsing MS; assay: MRI-based scaled brain ventricular volume (lateral + 3rd ventricle / ICV); format: in vivo, human
# Text: Efficacy variable/timepoint: The endpoint was increase in ventricular volume up to the end of study (EOS). All available data up to EOS, regardless of treatment discontinuation was included (ITT approach).
# Ventricular Volume (VV) data were obtained from MRI images from patients that participated in the OPTIMUM study. Data were obtained from those patients who had MRI imagines at baseline week 60 and week 108. One pre-requisite was to select only those patients who had all images completed.
# Ventricular volume was estimated from MRI images collected at baseline (BL), week 60 and week 108 for 428 subjects treated with ponesimod and 427 with teriflunomide. Lesions were identified using T2-weighted and Proton Density (PD) MRIs. Ventricles were segmented using lesion-filled T1 images using with the longitudinal stream in FreeSurfer 7. For each subject, scaled ventricular volume (V) was computed as the sum of lateral and 3rd ventricle volumes divided by the intracranial volume (ICV) and expressed as a percentage. Average V (V) and average change in V (ΔV) from baseline at weeks 60 and 108 were compared across treatment arms. Ventricular volumes were correlated with Multiple Sclerosis Functional Composite (MSFC), Paced Auditory Serial Addition Test (PASAT), Average Timed 25 Foot Walk (T25FW), Average 9-Hole Peg Test (9-HPT), Single Digit Modality Test (SDMT), FSIQ-RMS and Expanded Disability Score (EDSS).
# [5] = system: adult subjects with relapsing MS; assay: Phase III study ponesimod 20 mg vs teriflunomide 14 mg: treatment-emergent adverse events (Safety Set)
# Procedure: A prospective, multicenter, randomized, double-blind, active controlled, parallel-group, phase III, superiority study was conducted.
# The treatment period consisted of an up-titration period (from Day 1 to 14) and a maintenance period (Day 15 until EOT).
# To reduce the first-dose effect of ponesimod, an up-titration scheme was implemented from Day 1 to Day 14: • Days 1 and 2; 2 mg. • Days 3 and 4; 3 mg. • Days 5 and 6; 4 mg. • Day 7; 5 mg. • Day 8; 6 mg. • Day 9; 7 mg. • Day 10; 8 mg. • Day 11; 9 mg. • Days 12, 13, and 14; 10 mg. • Day 15 until EOT; 20 mg.
# The Safety Set (SAF) included all randomized subjects who received at least one dose of study treatment. Subjects were analyzed based on actual treatment taken, not randomized treatment.
# [6] = ponesimod 20 mg N=565, teriflunomide 14 mg N=566, Safety Set
# [7] = ponesimod 20 mg, teriflunomide 14 mg
# [8] = week 60 and week 108 vs baseline, ponesimod n=428, teriflunomide n=427
# [9] = Day 1, ponesimod N=565, teriflunomide N=566, Safety Set
# [10] = treatment-emergent, ponesimod 20 mg N=565, teriflunomide 14 mg N=566, Safety Set
structure (smiles),measurement,setting,value
CCCCCCCCc1ccc(CCC(N)(CO)CO)cc1 [fingolimod],ECG HR effect: time of nadir post-dose,[1],~6 h
CCc1cc(/C(C)=N/OCc2ccc(C3CCCCC3)c(C(F)(F)F)c2)ccc1CN1CC(C(=O)O)C1 [siponimod],ECG HR effect: time of nadir post-dose,[1],3 to 4 h
"CCC/N=C1\S/C(=C\c2ccc(OC[C@H](O)CO)c(Cl)c2)C(=O)N1c1ccccc1C [ponesimod, (R)-5-[3-chloro-4-(2,3-dihydroxy-propoxy)-benz[Z]ylidene]-2-([Z]-propylimino)-3-o-tolyl-thiazolidin-4-one]",Premature discontinuation: Death,[2]; [6],0 n
same,Subjects discontinued due to AEs or tolerability related reasons,[2]; [7],6.5%
same,Mean heart rate reduction compared to pre-dose (maximum),"[3]; Day 1, 2 hours post dose, 12-lead ECG",−8.7 bpm
same,2nd or higher degree AV block,"[3]; Day 1, first dose",No 2nd or higher degree AV block was observed
same,ECG HR effect: time of nadir / maximum mean heart rate reduction post-dose,"[3]; Day 1, first dose",2 h
same,Subjects meeting discharge criteria at 4 hours post-dose,"[3]; Day 1, first dose",ca. 99%
same,Subjects with asymptomatic post-dose HR≤40 bpm,"[3]; Day 1, all had pre-treatment HR <55 bpm",3 subjects
same,Rate of increase in ventricular volume lower compared to teriflunomide,[4]; week 60,60%
same,"Difference in ventricular volume increase, ponesimod minus teriflunomide (Δ60V^pon−Δ60V^ter)","[4]; week 60, p<0.001",−0.025%
same,"Average change in scaled ventricular volume from baseline (Δ60V), percentage of ICV","[4]; week 60, p<0.001 vs baseline, ponesimod n=428, teriflunomide n=427",0.026%
same,Reduction of atrophy compared to teriflunomide (FIGS. 4-6; 3rd and lateral ventricle),[4]; [8],greater
same,Ventricular enlargement compared to teriflunomide (FIG. 3),[4]; [8],less
same,Rate of increase in ventricular volume lower compared to teriflunomide,[4]; week 108,45%
same,"Difference in ventricular volume increase, ponesimod minus teriflunomide (Δ108V^pon−Δ108V^ter)","[4]; week 108, p<0.001",0.043%
same,"Average change in scaled ventricular volume from baseline (Δ108V), percentage of ICV","[4]; week 108, p<0.001 vs baseline, ponesimod n=428, teriflunomide n=427",0.067%
same,Incidence of treatment-emergent heart rate and rhythm (including hypotension) AESIs on Day 1,"[5]; Day 1, ponesimod 20 mg arm, teriflunomide 14 mg arm",2.1%
same,AESI effect on heart rate and rhythm (including hypotension) on Day 1: Subjects with at least one AE,[5]; [9],12(2.1) n (%)
same,"AESI heart rate and rhythm on Day 1, PT: Atrioventricular block first degree",[5]; [9],3(0.5) n (%)
same,"AESI heart rate and rhythm on Day 1, PT: Bradycardia",[5]; [9],4(0.7) n (%)
same,"AESI heart rate and rhythm on Day 1, PT: Bundle branch block left",[5]; [9],1(0.2) n (%)
same,"AESI heart rate and rhythm on Day 1, PT: Bundle branch block right",[5]; [9],1(0.2) n (%)
same,"AESI heart rate and rhythm on Day 1, PT: Defect conduction intraventricular",[5]; [9],2(0.4) n (%)
same,"AESI heart rate and rhythm on Day 1, PT: Electrocardiogram QT prolonged",[5]; [9],0 n (%)
same,"AESI heart rate and rhythm on Day 1, PT: Presyncope",[5]; [9],0 n (%)
same,"AESI heart rate and rhythm on Day 1, PT: Sinus arrhythmia",[5]; [9],1(0.2) n (%)
same,"AESI heart rate and rhythm on Day 1, PT: Sinus bradycardia",[5]; [9],1(0.2) n (%)
same,Treatment-emergent AESI: Infection,"[5]; only if serious or severe, ponesimod 20 mg N=565, teriflunomide 14 mg N=566, Safety Set",9(1.6) n (%)
same,TEAEs leading to premature discontinuation of study drug: Subjects with at least one AE,[5]; [6],49(8.7) n (%)
same,"TEAEs leading to premature discontinuation, SOC: Blood and lymphatic system disorders",[5]; [6],3(0.5) n (%)
same,"TEAEs leading to premature discontinuation, SOC: Cardiac disorders",[5]; [6],1(0.2) n (%)
same,"TEAEs leading to premature discontinuation, SOC: Eye disorders",[5]; [6],5(0.9) n (%)
same,"TEAEs leading to premature discontinuation, SOC: Gastrointestinal disorders",[5]; [6],4(0.7) n (%)
same,"TEAEs leading to premature discontinuation, SOC: General disorders and administration site conditions",[5]; [6],3(0.5) n (%)
same,"TEAEs leading to premature discontinuation, SOC: Hepatobiliary disorders",[5]; [6],3(0.5) n (%)
same,"TEAEs leading to premature discontinuation, SOC: Investigations",[5]; [6],12(2.1) n (%)
same,"TEAEs leading to premature discontinuation, SOC: Musculoskeletal and connective tissue disorders",[5]; [6],1(0.2) n (%)
same,"TEAEs leading to premature discontinuation, SOC: Neoplasms benign, malignant and unspecified (incl cysts and polyps)",[5]; [6],1(0.2) n (%)
same,"TEAEs leading to premature discontinuation, SOC: Nervous system disorders",[5]; [6],2(0.4) n (%)
same,"TEAEs leading to premature discontinuation, SOC: Pregnancy, puerperium and perinatal conditions",[5]; [6],3(0.5) n (%)
same,"TEAEs leading to premature discontinuation, SOC: Psychiatric disorders",[5]; [6],1(0.2) n (%)
same,"TEAEs leading to premature discontinuation, SOC: Reproductive system and breast disorders",[5]; [6],0 n (%)
same,"TEAEs leading to premature discontinuation, SOC: Respiratory, thoracic and mediastinal disorders",[5]; [6],7(1.2) n (%)
same,"TEAEs leading to premature discontinuation, SOC: Skin and subcutaneous tissue disorders",[5]; [6],1(0.2) n (%)
same,"TEAEs leading to premature discontinuation, SOC: Social circumstances",[5]; [6],2(0.4) n (%)
same,"TEAEs leading to premature discontinuation, SOC: Surgical and medical procedures",[5]; [6],0 n (%)
same,"TEAEs leading to premature discontinuation, SOC: Vascular disorders",[5]; [6],3(0.5) n (%)
same,Treatment-emergent AESI: Effect on heart rate and rhythm (including hypotension),[5]; [6],29(5.1) n (%)
same,Treatment-emergent AESI: Hepatobiliary disorders/Liver enzyme abnormality,[5]; [6],145(25.7) n (%)
same,Treatment-emergent AESI: Herpetic infection,[5]; [6],27(4.8) n (%)
same,Treatment-emergent AESI: Hypertension,[5]; [6],57(10.1) n (%)
same,Treatment-emergent AESI: Macular edema,[5]; [6],6(1.1) n (%)
same,Treatment-emergent AESI: Non-skin malignancy,[5]; [6],1(0.2) n (%)
same,Treatment-emergent AESI: Pulmonary events,[5]; [6],45(8.0) n (%)
same,Treatment-emergent AESI: Seizure,[5]; [6],8(1.4) n (%)
same,Treatment-emergent AESI: Skin malignancy,[5]; [6],5(0.9) n (%)
same,AESI category hepatobiliary disorders/liver enzyme abnormality,[5]; [7],25.7%
same,AESI category hypertension,[5]; [7],10.1%
same,AESI category pulmonary events,[5]; [7],8.0%
same,Proportion of subjects who experienced at least one SAE,[5]; [7],8.7%
same,Proportion of subjects who experienced at least one TEAE,[5]; [7],88.8%
same,TEAE: ALT increased,[5]; [7],19.5%
same,TEAE: headache,[5]; [7],11.5%
same,TEAE: nasopharyngitis,[5]; [7],19.3%
same,TEAE: upper respiratory tract infection,[5]; [7],10.6%
same,TEAEs leading to premature treatment discontinuation,[5]; [7],8.7%
same,Subjects with at least one AE,[5]; [10],502(88.8) n (%)
same,Subjects with at least one AE leading to study drug discontinuation,[5]; [10],49(8.7) n (%)
same,Subjects with at least one Drug-Related AE,[5]; [10],278(49.2) n (%)
same,Subjects with at least one Fatal AE,[5]; [10],0 n (%)
same,Subjects with at least one Serious AE,[5]; [10],49(8.7) n (%)
same,Subjects with at least one Severe AE,[5]; [10],39(6.9) n (%)
